Assay results published in patent publication US20090062294A1, “HETEROARYL-SUBSTITUTED UREA MODULATORS OF FATTY ACID AMIDE HYDROLASE” (priority 2007, published 2009).
Structures can show the parent of a compound that is named as a salt.

Key:
[1] = tested on: spasticity; details: model of multiple sclerosis; cited from earlier work
[2] = tested on: neuropathic pain; details: rats; cited from earlier work
[3] = tested on: acute thermal nociception; details: rats; cited from earlier work
[4] = target: T1, rat FAAH (Rattus norvegicus, UniProt P97612); assay: Assay Method 2: FAAH assay, 3H-anandamide hydrolysis in homogenate of SK-N-MC cells transfected with rat FAAH; assay type: biochemical; details: average of results, > = solubility limit or highest concentration tested
T1 sequence (P97612 1-579): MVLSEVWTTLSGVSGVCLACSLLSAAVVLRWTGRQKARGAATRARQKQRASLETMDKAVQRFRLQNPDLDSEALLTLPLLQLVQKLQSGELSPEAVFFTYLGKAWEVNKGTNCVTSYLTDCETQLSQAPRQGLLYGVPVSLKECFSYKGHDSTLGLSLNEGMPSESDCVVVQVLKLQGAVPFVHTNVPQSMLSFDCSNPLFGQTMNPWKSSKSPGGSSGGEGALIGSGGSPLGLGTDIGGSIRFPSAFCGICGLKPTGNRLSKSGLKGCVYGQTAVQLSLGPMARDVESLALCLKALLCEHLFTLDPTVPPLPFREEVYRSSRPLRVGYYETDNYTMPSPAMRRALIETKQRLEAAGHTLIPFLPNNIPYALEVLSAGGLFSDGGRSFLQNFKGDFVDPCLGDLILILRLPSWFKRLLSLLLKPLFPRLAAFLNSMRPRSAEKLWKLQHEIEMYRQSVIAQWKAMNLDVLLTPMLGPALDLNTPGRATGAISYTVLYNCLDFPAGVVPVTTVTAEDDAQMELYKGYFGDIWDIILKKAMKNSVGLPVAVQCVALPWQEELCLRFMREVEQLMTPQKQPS
In short: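 Homogenate of SK-N-MC cells stably transfected with rat FAAH cDNA (G418-selected clones) in pH 9 Tris/EDTA/glycerol/Triton buffer. Incubated with compound and 80 nM final [3H]-anandamide for 1 h at rt. Released [3H]-ethanolamine separated from substrate on activated charcoal filters and counted by scintillation.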

[5] = tested on: mechanical (tactile) allodynia in the left hind paw; assay: Assay Method 3: Rat Mild Thermal Injury Model (MTI), mechanical allodynia; assay type: in vivo, Sprague-Dawley rats; details: 0.5 h after administration
From the text: Assay Method 3—Rat Mild Thermal Injury Model (MTI)
Pathogen-free, male albino Sprague-Dawley rats were purchased from Harlan Industries (San Diego, Calif.) and maintained on a 12-h light/dark cycle (lights on at 9:00 AM and off at 9:00 PM) in a climate-controlled room. Food and water were available ad libitum up to the time of the testing.
Under isoflurane/oxygen anesthesia, a first-degree burn injury (erythema without blistering) was produced as follows: the plantar surface of the rat's left hind paw was placed on water-dampened 56° C. hotplate for 20 seconds and steady contact was maintained by applying an 84 g weight to the dorsum (after Nozaki-Taguchi & Yaksh, Neurosci. Lett. 1998, 254, 25-28).
Mild thermal injury results in mechanical allodynia in the left hind paw. Mechanical (tactile) allodynia was assessed by determining the median threshold at which the affected paw was withdrawn from graded stimuli (von Frey filaments ranging from 0.41 to 15.8 g) applied perpendicularly with sufficient force to bend slightly and held for 2-3 seconds against the proximal half of the third and fourth toe surfaces through wire-mesh observation cages. Paw flinching during or immediately following the removal of the stimulus was considered a positive response. A paw withdrawal threshold (PWT) was determined by sequentially increasing and decreasing the stimulus strength and analyzing withdrawal data using an adaptation of the Dixon up-down method, as described (Chaplan et al., J. Neurosci. 1994, 53, 55-63). Rats were included in the study only if their baseline PWT was 3.1623 g or lower (4.5 logarithmically).
Rats were tested for pre-injury thresholds prior to mild thermal injury and again for baseline thresholds after development of mechanical allodynia. Immediately after baseline measurement, test compound or vehicle was administered orally and the measurement was repeated at 0.5 h after administration. The tactile thresholds (log value) were converted to percent of a maximum possible effect ( %MPE): % MPE=[Threshold(t)−Threshold(baseline)]*100/[Threshold(pre)−Threshold(baseline)], where t=post-treatment time. Data were expressed as mean±standard error of the mean (S.E.M.). Statistical analysis was performed using two-way ANOVA with repeated measures with a significance level of p<0.05.
Results for compounds tested in this assay are presented in Table 2, as an average of results obtained. Compounds were tested in free base, hydrochloride salt, and/or trifluoroacetic acid salt forms.

[6] = target: T2, FAAH (Homo sapiens, UniProt O00519); assay: Assay Method 1: FAAH assay, 3H-anandamide hydrolysis in homogenate of T84 cells or SK-N-MC cells transfected with human FAAH; assay type: biochemical; details: average of results, > = solubility limit or highest concentration tested
T2 sequence (O00519 1-579): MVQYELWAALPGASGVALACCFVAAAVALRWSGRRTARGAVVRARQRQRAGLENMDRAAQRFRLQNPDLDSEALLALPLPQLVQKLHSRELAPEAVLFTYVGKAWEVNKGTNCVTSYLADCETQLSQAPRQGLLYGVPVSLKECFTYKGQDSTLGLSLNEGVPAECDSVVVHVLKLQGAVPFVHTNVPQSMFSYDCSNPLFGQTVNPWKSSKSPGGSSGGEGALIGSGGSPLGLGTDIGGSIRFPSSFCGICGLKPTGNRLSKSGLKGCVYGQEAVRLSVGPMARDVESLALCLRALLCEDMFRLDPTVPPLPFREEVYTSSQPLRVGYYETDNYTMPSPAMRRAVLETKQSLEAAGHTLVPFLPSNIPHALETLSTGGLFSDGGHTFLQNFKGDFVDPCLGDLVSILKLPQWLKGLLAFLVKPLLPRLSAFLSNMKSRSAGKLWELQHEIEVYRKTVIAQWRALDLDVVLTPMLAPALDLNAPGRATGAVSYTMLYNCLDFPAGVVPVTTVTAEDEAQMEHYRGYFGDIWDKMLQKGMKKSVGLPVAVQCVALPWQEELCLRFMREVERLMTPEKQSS
In short: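 Homogenates of T84 cells or of SK-N-MC cells stably transfected with human FAAH (G418-selected) were prepared in pH 9 Tris/EDTA/glycerol/Triton buffer. They were incubated with compound and 80 nM final ^3H-anandamide for 1 h at rt. Released ^3H-ethanolamine was separated on activated charcoal and counted by scintillation.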

[7] = tested on: thermal nociception; details: rats; cited from earlier work
[8] = tested on: thermal nociception; details: rats; cited from earlier work; remark: listed apart in the source
[9] = target: T2, FAAH; details: cited from earlier work
[10] = tested on: pain; details: rat; cited from earlier work
[11] = tested on: anxiety; details: rats; cited from earlier work

IC50 [4] [nM] | IC50 [6] [nM] | SMILES | further results
– | – | CCCCCCCCCCCCCCCCS(=O)(=O)F [AM374] | spasticity in CREAE mice [1]: significantly reduce spasticity
– | – | Cc1nc(-c2ccccc2)c(-c2ccccc2)n1CCCCCCNC(=O)Oc1ccccc1F [BMS-1] | analgesic effect in Chung spinal nerve ligation model [2]: analgesic effect; analgesic effect in Hargraves test [3]: analgesic effect
10 | – | O=C(Nc1noc2ccccc12)N1CCN(Cc2cccc(Oc3ccc(Cl)cc3)c2)CC1 [Example 36, 4-[3-(4-Chloro-phenoxy)-benzyl]-piperazine-1-carboxylic acid benzo[d]isoxazol-3-ylamide trifluoroacetic acid salt] | % MPE ([5]; 20 mg/Kg p.o., mean +/- S.E.M.): 38 +/− 13%
– | – | O=C(Nc1ccon1)N1CCN(Cc2cccc(Oc3ccc(Cl)cc3)c2)CC1 [Example 46, 4-[3-(4-Chloro-phenoxy)-benzyl]-piperazine-1-carboxylic acid isoxazol-3-ylamide trifluoroacetic acid salt] | % MPE ([5]; 6 mg/Kg p.o.): 0%
9 | – | O=C(Nc1cnccn1)N1CCN(Cc2cccc(Oc3ccc(Cl)cc3)c2)CC1 [Example 58, 4-[3-(4-Chloro-phenoxy)-benzyl]-piperazine-1-carboxylic acid pyrazin-2-ylamide trifluoroacetic acid salt] | % MPE ([5]; 20 mg/Kg p.o., mean +/- S.E.M.): 52 +/− 7%
12 | 6 | O=C(Nc1cnccn1)N1CCN(Cc2cccc(Oc3ccc(SC(F)(F)F)cc3)c2)CC1 [Example 234, N-Pyrazin-2-yl-4-(3-{4-[(trifluoromethyl)sulfanyl]phenoxy}benzyl)-piperazine-1-carboxamide] | –
6000 | 600 | N#Cc1cccc(Oc2cccc(CN3CCN(C(=O)Nc4cnccn4)CC3)c2)c1 [Example 235, 4-[3-(3-Cyanophenoxy)benzyl]-N-pyrazin-2-ylpiperazine-1-carboxamide] | –
8000 | 300 | N#Cc1ccc(Oc2cccc(CN3CCN(C(=O)Nc4cnccn4)CC3)c2)cc1C(F)(F)F [Example 236, 4-{3-[4-Cyano-3-(trifluoromethyl)phenoxy]benzyl}-N-Pyrazin-2-ylpiperazine-1-carboxamide] | –
30 | 5 | O=C(Nc1cnccn1)N1CCN(Cc2cccc(Oc3ccc4c(c3)OC(F)(F)O4)c2)CC1 [Example 237, 4-{3-[(2,2-Difluoro-1,3-benzodioxol-5-yl)oxy]benzyl}-N-pyrazin-2-ylpiperazine-1-carboxamide] | –
1600 | 200 | O=C(Nc1cnccn1)N1CCN(Cc2cccc(Oc3ccccc3Cl)c2)CC1 [Example 238, 4-[3-(2-Chlorophenoxy)benzyl]-N-pyrazin-2-ylpiperazine-1-carboxamide] | –
6000 | 700 | O=C(Nc1cnccn1)N1CCN(Cc2ccc3ccccc3n2)CC1 [Example 239, N-Pyrazin-2-yl-4-(quinolin-2-ylmethyl)piperazine-1-carboxamide] | –
80 | 20 | O=C(Nc1cnccn1)N1CCN(Cc2cccc(Oc3cccc(Br)c3)c2)CC1 [Example 240, 4-[3-(3-Bromophenoxy)benzyl]-N-pyrazin-2-ylpiperazine-1-carboxamide] | –
370 | 8 | O=C(Nc1cnccn1)N1CCN(Cc2cccc(Oc3ccc(F)c(C(F)(F)F)c3)c2)CC1 [Example 241, 4-{3-[4-Fluoro-3-(trifluoromethyl)phenoxy]benzyl}-N-pyrazin-2-ylpiperazine-1-carboxamide] | –
50 | 9 | O=C(Nc1cnccn1)N1CCN(Cc2cccc(Oc3cccc(OC(F)(F)F)c3)c2)CC1 [Example 242, N-Pyrazin-2-yl-4-{3-[3-(trifluoromethoxy)phenoxy]benzyl}piperazine-1-carboxamide] | –
9 | 2 | O=C(Nc1nccnc1Cl)N1CCN(Cc2cccc(Oc3ccc(Cl)cc3)c2)CC1 [Example 243, 4-[3-(4-Chlorophenoxy)benzyl]-N-(3-chloropyrazin-2-yl)piperazine-1-carboxamide] | –
7000 | 1400 | O=C(Nc1cc(-c2ccccc2)[nH]n1)N1CCN(Cc2cccc(Oc3ccc(Cl)cc3)c2)CC1 [Example 244, 4-[3-(4-Chlorophenoxy)benzyl]-N-(5-phenyl-1H-pyrazol-3-yl)piperazine-1-carboxamide trifluoroacetate salt] | –
199 | – | O=C(Nc1cccnn1)N1CCN(Cc2cccc(Oc3ccc(Cl)cc3)c2)CC1 [Example 246, 4-[3-(4-Chloro-phenoxy)-benzyl]-piperazine-1-carboxylic acid pyridazin-3-ylamide] | % MPE ([5]; 20 mg/Kg p.o., mean +/- S.E.M.): 32 +/− 3%
– | – | O=C(CCCCCCc1ccccc1)c1ncc(-c2ccccn2)o1 [OL-135] | analgesic activity in tail emersion test [7]: analgesic activity; analgesic efficacy/activity in hot plate test [8]: analgesic activity; inhibition of FAAH [9]: potent inhibitor
– | – | NC(=O)c1cccc(-c2cccc(OC(=O)NC3CCCCC3)c2)c1 [URB-597] | analgesic efficacy in formalin test [10]: analgesic efficacy; efficacy in zero plus maze model of anxiety [11]: efficacy; analgesic efficacy/activity in hot plate test [8]: analgesic efficacy
